Data taken from patent publication US20240173353A1, “UNIVERSAL CHIMERIC ANTIGEN RECEPTOR T-CELL AND APPLICATION THEREOF” (SHANGHAI IASO BIOTECHNOLOGY CO., LTD., priority 2021, published 2024).

Columns and labels:
NK cells = experiment: CD107a release of NK cells activated by K562; assay type: cell-based, human
Method: The inventor used Miltenyi human NK sorting magnetic beads to separate NK cells from human peripheral blood, and used DAKEWE NK medium to culture and expand them in vitro. On Day 8, a population of NK cells with more than 95% having positive CD56 expression could be obtained. These NK cells were taken out and treated with 0 nM, 100 nM and 200 nM dasatinib respectively for 24 hr, and then divided into two groups, one of which was not activated, and the other group was stimulated with MHC-class I molecule-deficient K562 cells for 5 hr. Then, the CD107a release of NK cells were detected in both of them.
The inventors isolated NK cells from human PBMCs, and then cultured and differentiated them in NK medium to obtain CD56-positive NK cells with a purity higher than 95%. The exploration of the threshold of NK activation with dasatinib was carried out with seven concentrations in the range of 0-50 nM, namely 0, 10, 20, 25, 30, 40 and 50 nM, and the treatment was carried out overnight. The next day, the cells were resuspended with NK medium and activated with K562. Lymphocyte activator was used as a positive control for activation, and a part of NK cells that were not activated by K562 were also kept. Two replicates were set for each group. anti-CD107a antibody and monensin were added while carrying out activation, and after co-incubation for 6 hr, the CD107a release of CD56-positive NK cells was detected by flow cytometry.
The inventors isolated NK cells from human PBMCs, and then cultured and differentiated them in NK medium to obtain CD56-positive NK cells with a purity higher than 95%. Three pretreatments were done respectively (1) absence of dasatinib pretreatment; (2) pretreatment with […] pretreatment with 50 nM dasatinib, and the cells were cultured overnight. The next day, the concentration of dasatinib was reduced, and the concentration was adjusted to 0, 7.5, 12.5, 17.5 and 25 nM respectively. […] Two replicates were set for each group.
In order to repeatedly verify that the inhibition of NK cell activation function by dasatinib has an extended effect, the inventors repeated the above experiment. […] After 4 hr of co-incubation, CD107a release from CD56 positive NK cells was detected.
The inventors used CD3-negative cells in human PBMCs, which contained more than 5% of CD56-positive NK cells. […] The next day, the cells were resuspended with NK medium and activated with K562. Lymphocyte activator was used as a positive control for activation, and a part of NK cells that were not activated by K562 were also kept. Two replicates were set for each group. anti-CD107a antibody and monensin were added while carrying out activation, and after co-incubation for 6 hr, the CD107a release of CD56-positive NK cells was detected by flow cytometry.
The inventors isolated NK cells from human PBMCs, and then cultured and differentiated them in NK medium to obtain CD56-positive NK cells with a purity higher than 95%. […] Two replicates were set for each group.

T cells = experiment: T cell activation by anti-CD3/CD28 DynaBeads, CD25/CD69/4-1BB expression by flow cytometry
Source text: The inventors pre-treated T cells with dasatinib or DMSO for 5 hr, then activated T cells with anti-CD3/CD28 DynaBeads for 24 hr, and then detected the expression of activation molecules CD25, CD69 and 4-1BB by flow cytometry.
In order to verify the tolerance of the LCK-T316I mutation to the function of dasatinib, the inventors carried out experimental verification on the T cells with LCK edited with different sgRNA lengths prepared in Example 2.
The inventors isolated CD3-positive T cells from human peripheral blood and divided them into eleven portions for processing, with 1e5 cells in each portion. One of these portions was not treated with dasatinib, anti-CD3/CD28 DynaBeads were not added to activate TCR, and this portion was as the initial control group; the other 10 portions of cells were pretreated with different concentrations of dasatinib for 4 hr, ten concentrations ranging from 0 nM to 50 nM were set, and then anti-CD3/CD28 DynaBeads were added to activate TCR signals overnight. On the second day, the expression of CD25, CD69 and 4-1BB activation signals was detected, and the activation of TCR signals was detected. Two replicates were set for each group of experiments.
The inventors divided each of the three groups of edited cells into 6 sub-groups and cultured them in a flat-bottomed 96-well plate. Each sub-group contained two technical replicates, and each well contained 0.15×10^6 cells. […] Subsequently, the cells were cultured for 18 hr. The activated T cell surface marker molecule 4-1BB was detected by using the APC-labeled murine IgG monoclonal antibody, and the activated T cell surface marker molecule CD25 was detected by using the PE-labeled murine IgG monoclonal antibody, and the activated T cell surface marker CD69 was detected by FITC-labeled murine IgG monoclonal antibody.
The inventors conducted research using two groups of T cells (CBE3 control group and Km edited group) in the above experiments. The experimental procedure is basically the same as the above-mentioned experiment (FIG. 32B). The two groups of edited cells were each divided into 7 sub-groups and cultured them in a flat-bottomed 96-well plate. Each sub-group contained two technical replicates, and each well contained 0.15×10^6 cells. […] Subsequently, the cells were cultured for 18 hr. The activated T cell surface marker molecule 4-1BB was detected by using the APC-labeled murine IgG monoclonal antibody, and the activated T cell surface marker molecule CD25 was detected by using the PE-labeled murine IgG monoclonal antibody, and the activated T cell surface marker CD69 was detected by FITC-labeled murine IgG monoclonal antibody.

anti-BCMA-CAR-T cells = experiment: CD107a translocation of anti-BCMA-CAR-T cells co-incubated with target cells; assay type: cell-based, human; settings: wild-type anti-BCMA CAR-T, adjusted to 0 nM
CD19-UCART cells = experiment: CD107a release of CD19-UCART co-incubated with Raji, dynamic ponatinib concentration; assay type: cell-based, human
Method: In this example, the inventors used the prepared CD19-UCART and Km-edited CD19-UCART cells in the experiments. […] The next day, the concentration was adjusted to 0, 50, 100 and 200 nM in the group of 200 nM pretreatment overnight, and the concentration was adjusted to 0, 100, 200 nM and 300 nM in the group of 500 nM pretreatment overnight. […] Two technical replicates were set for each group. After 4 hr of co-incubation, CD107a release in CD8 and CAR double-positive cells was detected.

[1] = CBE3 control group, 200 nM ponatinib
[2] = Km edited group, 500 nM ponatinib
[3] = Km group (30% T316I), 200 nM ponatinib
[4] = Sg12 control group, 200 nM ponatinib
[5] = second experiment, Km group, 200 nM ponatinib

Structure (SMILES): Cc1ccc(C(=O)Nc2ccc(CN3CCN(C)CC3)c(C(F)(F)F)c2)cc1C#Cc1cnc2cccnn12 [ponatinib]
- release of CD107a (NK cells; NK cells, highest ponatinib pretreatment (200 nM), lowered to 0 nM, K562): above 38%
- concentration that effectively inhibits NK cell activation in vitro (NK cells; ponatinib): 200 nM
- number of cells (survival of T cells) (T cells; 1000 nM ponatinib): significantly reduced
- CD25 and 4-1BB double-positive cells (T cells; [1]): 1.00%
- CD25 and CD69 double-positive cells (T cells; [1]): 5.59%
- CD25 and 4-1BB double-positive cells (T cells; [2]): 2.42%
- CD25 and CD69 double-positive cells (T cells; [2]): 6.75%
- CD25 and 4-1BB double-positive cells (T cells; [3]): 24.1%
- CD25 and CD69 double-positive cells (T cells; [3]): 17.7%
- CD25 and 4-1BB double-positive cells (T cells; [4]): 1.85%
- CD25 and CD69 double-positive cells (T cells; [4]): 5.31%
- concentration that effectively inhibits activation of T cells (T cells; in vitro): 200 nM
- cells expressing CD25 and 4-1BB (T cells; [5]): 19.71%
- cells expressing CD25 and CD69 (T cells; [5]): 23.9%
- percentage of CD107a positive cells (anti-BCMA-CAR-T cells; 200 nM ponatinib pretreatment, RPMI-8226 4 hr): about 16%
- percentage of CD107a positive cells (anti-BCMA-CAR-T cells; 500 nM pretreatment): about 3%
- concentration that shuts down activation of CD19-UCART with LCK-T316I mutation (CD19-UCART cells): 500 nM
- percentage of CD107a-positive cells (CD19-UCART cells; CD19-UCART group, 200 nM pretreatment overnight, adjusted to 0 nM, Raji 4 hr): 17.2%
- percentage of CD107a-positive cells (CD19-UCART cells; CD19-UCART group, 200 nM pretreatment, 50 nM): 0.485%
- percentage of CD107a-positive cells (CD19-UCART cells; CD19-UCART group, 200 nM pretreatment, 200 nM, Raji 4 hr): 0.735%
- percentage of CD107a-positive cells (CD19-UCART cells; CD19-UCART group, 500 nM pretreatment, 300 nM): 0.495%
- percentage of CD107a-positive cells (CD19-UCART cells; CD19-UCART group, 500 nM pretreatment, adjusted to 0 nM): 1.73%
- percentage of CD107a-positive cells (CD19-UCART cells; Km-edited CD19-UCART group, 200 nM pretreatment, 200 nM): 5.12%
- percentage of CD107a-positive cells (CD19-UCART cells; Km-edited CD19-UCART group, 200 nM pretreatment, adjusted to 0 nM): 16.6%
- percentage of CD107a-positive cells (CD19-UCART cells; Km-edited CD19-UCART group, 500 nM pretreatment, 300 nM): 1.47%
- percentage of CD107a-positive cells (CD19-UCART cells; Km-edited CD19-UCART group, 500 nM pretreatment, adjusted to 0 nM): 11.15%
